In patent US20230000813A1, “COMPOUND FOR THE TREATMENT OF BOVINE OR SWINE RESPIRATORY DISEASE” (Intervet Inc., priority 2016, published 2023):
≈ marks a conversion by molar mass, not a printed value.

Tests used:
Assay in all cases: MIC, broth-microdilution (CLSI VET01-A4)
Type in all cases: cell-based
[1] = tested on: Mannheimia haemolytica MH 13065 (XB0446-6003.9, BRD field isolate)
In short: (§1)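 Broth microdilution per CLSI VET01-A4 using doubling dilution series of compound. MIC taken as the lowest concentration with no turbidity visible to the unaided eye, interpreted per CLSI VET01-S3.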

[2] = tested on: Mannheimia haemolytica MH 13093 (XB0472-6014.1, BRD field isolate)
In short: as §1

[3] = tested on: Mannheimia haemolytica MH 12587 (1071, BRD field isolate, macrolide-resistance: erm+, E+); settings: Mannheimia haemolytica MH 12587, macrolide-resistant
In short: (§2)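 Compounds were tested in microdilution trays as twofold serial dilutions. The MIC was taken as the lowest concentration with no turbidity visible to the unaided eye, and results were interpreted per CLSI VET01-S3.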

[4] = tested on: Pasteurella multocida PM 6391 (ATCC 43137, reference strain); settings: Pasteurella multocida PM 6391; for MIC: read-out: MIC PM 6391
In short: as §2

[5] = tested on: Mannheimia haemolytica MH 6374 (ATCC 33396, reference strain); settings: Mannheimia haemolytica MH 6374; read-out: MIC MH 6374
In short: as §2

[6] = tested on: Mannheimia haemolytica MH 6357 (M7/2, reference strain, cattle infection strain); settings: Mannheimia haemolytica MH 6357; read-out: MIC MH 6357
In short: as §2

[7] = tested on: Pasteurella multocida PM 6267 (P 2225 (L386), reference strain, mouse infection strain); settings: Pasteurella multocida PM 6267
In short: as §2

[8] = tested on: Pasteurella multocida PM 12080 (IV102277-0093, BRD field isolate); settings: Pasteurella multocida PM 12080
In short: as §2

[9] = tested on: Pasteurella multocida PM 10775 (080130003051, BRD field isolate); settings: Pasteurella multocida PM 10775
In short: as §2

[10] = tested on: Mannheimia haemolytica MH 10720 (154, BRD field isolate); settings: Mannheimia haemolytica MH 10720
In short: as §2

Compound | MIC MH 13065 [1] | MIC [2] [µM] | MIC MH 12587 [3] [µM] | MIC [4] [µM] | MIC [5] [µM] | MIC [6] [µM] | MIC PM 6267 [7] | MIC PM 12080 [8] | MIC PM 10775 [9] | MIC MH 10720 [10] | MIC [1] [µM] | MIC PM 6391 [4] | MIC ([8]; read-out: MIC PM 12080) [µM] | MIC ([10]; read-out: MIC MH 10720) [µM]
CC(C)C(NC(=O)c1ccc(C#Cc2ccc(CNC3CC3)cc2)cc1)C(=O)NO (stereo not shown) [Compound 144] | <=0.1 μM | 0.2 (≈ 0.0811 µg/mL) | 0.2 (≈ 0.0811 µg/mL) | 0.098 (≈ 0.0397 µg/mL) | 0.195 (≈ 0.0791 µg/mL) | 1.563 (≈ 0.634 µg/mL) | <=0.1 μM | <=0.1 μM | <=0.1 μM | <=0.1 μM |  |  |  | 
CC(C)C(NC(=O)c1ccc(C#Cc2ccc(CNCc3nccs3)cc2)cc1)C(=O)NO (stereo not shown) [Compound 341] |  | 0.4 (≈ 0.185 µg/mL) | 0.4 (≈ 0.185 µg/mL) |  | 0.4 (≈ 0.185 µg/mL) | 0.2 (≈ 0.0925 µg/mL) | <=0.1 μM | <=0.1 μM | <=0.1 μM | <=0.1 μM | 0.2 (≈ 0.0925 µg/mL) | <=0.1 μM |  | 
CC(C)(C(NC(=O)c1ccc(C#Cc2ccc(CNCc3ccccn3)cc2)cc1)C(=O)NO)S(C)(=O)=O (stereo not shown) [C. 615] |  | 0.8 (≈ 0.428 µg/mL) | 1.6 (≈ 0.855 µg/mL) |  | 0.4 (≈ 0.214 µg/mL) | 1.6 (≈ 0.855 µg/mL) | <=0.1 μM | <=0.1 μM | <=0.1 μM | <=0.1 μM | 1.6 (≈ 0.855 µg/mL) | <=0.1 μM |  | 
CC(C)C(NC(=O)c1ccc(C#Cc2ccc(CNCc3ccnc(Cl)c3)cc2)cc1)C(=O)NO (stereo not shown) [Compound 288] |  | 0.8 (≈ 0.393 µg/mL) | 1.6 (≈ 0.786 µg/mL) | 0.4 (≈ 0.196 µg/mL) | 0.8 (≈ 0.393 µg/mL) | 0.4 (≈ 0.196 µg/mL) | <=0.1 μM |  | <=0.1 μM |  | 0.8 (≈ 0.393 µg/mL) |  | 0.2 (≈ 0.0982 µg/mL) | 0.2 (≈ 0.0982 µg/mL)
